Test: Maximum amount of diosgenin which can be dissolved at 50° C. (procedure repeated, varying the amount of diosgenin)
Assay type: physicochemical
Protocol: The above compositions were prepared in the following way. 100 mg of diosgenin were weighed out and placed in a hermetic pillbox, to which 4.9 g of the solvent(s) were added with magnetic stirring at 25° C. for not more than one hour. In the event that the diosgenin was not dissolved after one hour, the suspension was heated with stirring to 50° C. on a waterbath and then, in the absence of dissolution of the diosgenin after one hour at this temperature, the temperature of the suspension was raised to 70° C.
The above procedure was repeated, varying the amount of diosgenin placed in solution. It was thus shown that the maximum amount of diosgenin which can be dissolved at 50° C. in the mixture of solvents was 2%, whereas it was only 1% in each of the solvents taken individually.
The above procedure was repeated, varying the amount of diosgenin placed in solution. It was thus shown that the maximum amount of diosgenin which can be dissolved at 50° C. in the mixture of solvents was 4%, whereas it was only 1% in each of the solvents taken individually.
The above procedure was repeated, varying the amount of diosgenin placed in solution. It was thus shown that the maximum amount of diosgenin which can be dissolved at 50° C. in the mixture of solvents was 3%, whereas it was only 1% in each of the solvents taken individually.
The amount of diosgenin placed in solution was then varied. It was thus shown that the maximum amount of diosgenin which can be dissolved at 50° C. in the mixture of solvents was 3%, whereas it was only 1% in the ester and 2% in the UV screening agent.

C[C@@H]1CC[C@@]2(OC1)O[C@H]1C[C@H]3[C@@H]4CC=C5C[C@@H](O)CC[C@]5(C)[C@H]4CC[C@]3(C)[C@H]1[C@@H]2C [diosgenin, spirost-5-en-3-beta-ol]
maximum amount of diosgenin which can be dissolved (50/50 mixture of isononyl isononanoate and hexyldecanol): 3%
maximum amount of diosgenin which can be dissolved (50/50 mixture of isononyl isononanoate and octyl methoxycinnamate): 3%
maximum amount of diosgenin which can be dissolved (50/50 mixture of isopropyl myristate and hexyldecanol): 4%
maximum amount of diosgenin which can be dissolved (50/50 mixture of triglyceryl triisostearate and hexyldecanol): 2%
maximum amount of diosgenin which can be dissolved (hexyldecanol taken individually): 1%
maximum amount of diosgenin which can be dissolved (isononyl isononanoate (ester) alone): 1%
maximum amount of diosgenin which can be dissolved (isopropyl myristate taken individually): 1%
maximum amount of diosgenin which can be dissolved (octyl methoxycinnamate (UV screening agent) alone): 2%
maximum amount of diosgenin which can be dissolved (triglyceryl triisostearate taken individually): 1%

Source: patent publication US6528043B2, “Composition containing sapogenin” (L'Oreal, priority 1999, dated 2003)
